pIC50: −log10 of the molar value.
How the values were obtained:
[1] = target: T1, AP2-associated protein kinase 1 (Homo sapiens, UniProt Q2M2I8)
[2] = Permeability of the compound at pH 5.5 by PAMPA; format: ADME; conditions: read-out: permeability
[3] = Ratio of drug concentration in brain to plasma in C57BL6 mouse at 60 mg/kg, sc; format: ADME, organism-based; conditions: read-out: BPR
[4] = Plasma concentration in C57BL6 mouse at 60 mg/kg, sc by LC-MS/MS analysis; format: ADME, organism-based; conditions: in vivo
[5] = Permeability across basolateral to apical side in human Caco-2 cells incubated for 2 hrs by LC-MS/MS analysis; format: ADME, cell-based; conditions: for Papp B→A at 2 h: Caco-2, read-out: permeability
[6] = Permeability of the compound at pH 7.4 by PAMPA; format: ADME; conditions: read-out: permeability
[7] = Brain concentration in C57BL6 mouse at 60 mg/kg, sc by LC-MS analysis; format: ADME, organism-based; conditions: in vivo, read-out: Ct
[8] = Unbound brain to plasma concentration ratio in C57BL6 mouse at 60 mg/kg, sc; format: ADME, organism-based; conditions: read-out: K(p,uu,brain)
[9] = Metabolic stability in rat liver microsomes assessed as parent compound remaining at 0.5 uM incubated for 10 mins in presence of NADPH by LC-MS/MS analysis; format: ADME, Microsome; conditions: read-out: Stability
[10] = Plasma protein binding in human assessed as unbound fraction at 10 uM incubated for 5 hrs by rapid equlibrium dialysis based LC-MS/MS method
[11] = Plasma protein binding in mouse assessed as unbound fraction at 10 uM incubated for 5 hrs by rapid equlibrium dialysis based LC-MS/MS method
[12] = Metabolic stability in human liver microsomes assessed as parent compound remaining at 0.5 uM incubated for 10 mins in presence of NADPH by LC-MS/MS analysis; format: ADME, Microsome; conditions: read-out: Stability
[13] = Permeability across apical to basolateral side in human Caco-2 cells incubated for 2 hrs by LC-MS/MS analysis
[14] = Unbound brain to plasma concentration ratio in C57BL6 mouse at 30 mg/kg, sc; format: ADME, organism-based; conditions: read-out: K(p,uu,brain)
[15] = Plasma concentration in C57BL6 mouse at 30 mg/kg, sc by LC-MS/MS analysis; format: ADME, organism-based; conditions: in vivo
[16] = Ratio of drug concentration in brain to plasma in C57BL6 mouse at 30 mg/kg, sc; format: ADME, organism-based; conditions: read-out: BPR
[17] = Plasma protein binding in rat assessed as unbound fraction at 10 uM incubated for 5 hrs by rapid equlibrium dialysis based LC-MS/MS method
[18] = target: T1, AP2-associated protein kinase 1; assay: Inhibition of full length human AAK1 expressed in HEK293F incubated for 3 hrs by Western blot analysis; format: cell-based
[19] = Brain concentration in C57BL6 mouse at 30 mg/kg, sc by LC-MS analysis; format: ADME, organism-based; conditions: in vivo, read-out: Ct
[20] = Metabolic stability in mouse liver microsomes assessed as parent compound remaining at 0.5 uM incubated for 10 mins in presence of NADPH by LC-MS/MS analysis; format: ADME, Microsome; conditions: read-out: Stability
[21] = target: Serine/threonine-protein kinase 16 (Homo sapiens, UniProt O75716); assay: Inhibition of MPSK1 (unknown origin)
[22] = target: BMP-2-inducible protein kinase (Homo sapiens, UniProt Q9NSY1); assay: Inhibition of BIKE (unknown origin)
[23] = target: MAP kinase-interacting serine/threonine-protein kinase 1 (Homo sapiens, UniProt Q9BUB5); assay: Inhibition of MNK1 (unknown origin)
[24] = target: T2, Serine/threonine-protein kinase Chk1 (Homo sapiens, UniProt O14757); assay: Inhibition of CHK1 (unknown origin)
T2 sequence (O14757 whole entry): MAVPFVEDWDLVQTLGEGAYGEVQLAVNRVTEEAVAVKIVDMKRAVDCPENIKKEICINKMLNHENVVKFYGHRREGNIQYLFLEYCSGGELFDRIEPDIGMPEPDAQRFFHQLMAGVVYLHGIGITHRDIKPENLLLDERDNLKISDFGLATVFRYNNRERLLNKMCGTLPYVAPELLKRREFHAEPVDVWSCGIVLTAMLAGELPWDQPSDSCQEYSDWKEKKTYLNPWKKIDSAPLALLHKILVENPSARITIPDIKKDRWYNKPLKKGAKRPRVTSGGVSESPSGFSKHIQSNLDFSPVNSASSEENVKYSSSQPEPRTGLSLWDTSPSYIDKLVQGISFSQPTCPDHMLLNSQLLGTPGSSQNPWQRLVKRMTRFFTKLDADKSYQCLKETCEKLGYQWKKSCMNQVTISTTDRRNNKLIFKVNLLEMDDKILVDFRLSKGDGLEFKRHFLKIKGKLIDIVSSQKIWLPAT

[25] = target: Glycogen synthase kinase-3 beta (Homo sapiens, UniProt P49841); assay: Inhibition of GSK3beta (unknown origin)
[26] = target: T3, Cyclin-G-associated kinase (Homo sapiens, UniProt O14976); assay: Inhibition of GAK (unknown origin)
T3 sequence (O14976 whole entry): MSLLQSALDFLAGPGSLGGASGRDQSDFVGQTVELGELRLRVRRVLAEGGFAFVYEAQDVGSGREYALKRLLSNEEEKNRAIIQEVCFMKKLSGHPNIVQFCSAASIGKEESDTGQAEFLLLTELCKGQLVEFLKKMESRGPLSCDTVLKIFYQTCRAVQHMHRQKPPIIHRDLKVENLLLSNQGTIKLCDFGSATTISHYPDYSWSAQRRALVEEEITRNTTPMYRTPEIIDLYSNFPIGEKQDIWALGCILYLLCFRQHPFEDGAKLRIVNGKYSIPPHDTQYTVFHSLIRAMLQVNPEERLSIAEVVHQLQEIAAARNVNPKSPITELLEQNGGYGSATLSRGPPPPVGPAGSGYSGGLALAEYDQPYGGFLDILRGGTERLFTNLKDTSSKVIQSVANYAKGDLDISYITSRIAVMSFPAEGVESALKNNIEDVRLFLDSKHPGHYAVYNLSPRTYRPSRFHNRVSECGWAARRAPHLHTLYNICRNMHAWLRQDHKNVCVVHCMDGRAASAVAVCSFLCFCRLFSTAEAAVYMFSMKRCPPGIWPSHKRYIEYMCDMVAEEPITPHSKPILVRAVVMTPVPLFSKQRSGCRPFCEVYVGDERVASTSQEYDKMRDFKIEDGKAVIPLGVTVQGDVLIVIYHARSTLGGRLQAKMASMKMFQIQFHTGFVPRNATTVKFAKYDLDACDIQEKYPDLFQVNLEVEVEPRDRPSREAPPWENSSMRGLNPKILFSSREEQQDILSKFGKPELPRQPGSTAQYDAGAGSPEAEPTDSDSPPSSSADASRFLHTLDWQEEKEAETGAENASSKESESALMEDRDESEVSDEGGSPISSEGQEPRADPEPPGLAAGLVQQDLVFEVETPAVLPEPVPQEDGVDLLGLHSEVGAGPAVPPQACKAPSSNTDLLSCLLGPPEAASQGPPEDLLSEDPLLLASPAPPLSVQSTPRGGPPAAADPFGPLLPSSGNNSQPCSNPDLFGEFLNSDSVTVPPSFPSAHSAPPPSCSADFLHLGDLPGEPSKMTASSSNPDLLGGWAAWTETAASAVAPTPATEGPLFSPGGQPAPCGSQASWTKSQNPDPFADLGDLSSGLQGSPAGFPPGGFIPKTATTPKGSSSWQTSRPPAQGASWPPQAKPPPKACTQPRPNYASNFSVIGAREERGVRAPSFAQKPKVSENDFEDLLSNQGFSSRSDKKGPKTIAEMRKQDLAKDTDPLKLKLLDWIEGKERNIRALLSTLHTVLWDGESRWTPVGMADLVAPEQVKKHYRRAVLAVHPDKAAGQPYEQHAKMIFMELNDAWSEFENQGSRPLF

T1 sequence (Q2M2I8 whole entry): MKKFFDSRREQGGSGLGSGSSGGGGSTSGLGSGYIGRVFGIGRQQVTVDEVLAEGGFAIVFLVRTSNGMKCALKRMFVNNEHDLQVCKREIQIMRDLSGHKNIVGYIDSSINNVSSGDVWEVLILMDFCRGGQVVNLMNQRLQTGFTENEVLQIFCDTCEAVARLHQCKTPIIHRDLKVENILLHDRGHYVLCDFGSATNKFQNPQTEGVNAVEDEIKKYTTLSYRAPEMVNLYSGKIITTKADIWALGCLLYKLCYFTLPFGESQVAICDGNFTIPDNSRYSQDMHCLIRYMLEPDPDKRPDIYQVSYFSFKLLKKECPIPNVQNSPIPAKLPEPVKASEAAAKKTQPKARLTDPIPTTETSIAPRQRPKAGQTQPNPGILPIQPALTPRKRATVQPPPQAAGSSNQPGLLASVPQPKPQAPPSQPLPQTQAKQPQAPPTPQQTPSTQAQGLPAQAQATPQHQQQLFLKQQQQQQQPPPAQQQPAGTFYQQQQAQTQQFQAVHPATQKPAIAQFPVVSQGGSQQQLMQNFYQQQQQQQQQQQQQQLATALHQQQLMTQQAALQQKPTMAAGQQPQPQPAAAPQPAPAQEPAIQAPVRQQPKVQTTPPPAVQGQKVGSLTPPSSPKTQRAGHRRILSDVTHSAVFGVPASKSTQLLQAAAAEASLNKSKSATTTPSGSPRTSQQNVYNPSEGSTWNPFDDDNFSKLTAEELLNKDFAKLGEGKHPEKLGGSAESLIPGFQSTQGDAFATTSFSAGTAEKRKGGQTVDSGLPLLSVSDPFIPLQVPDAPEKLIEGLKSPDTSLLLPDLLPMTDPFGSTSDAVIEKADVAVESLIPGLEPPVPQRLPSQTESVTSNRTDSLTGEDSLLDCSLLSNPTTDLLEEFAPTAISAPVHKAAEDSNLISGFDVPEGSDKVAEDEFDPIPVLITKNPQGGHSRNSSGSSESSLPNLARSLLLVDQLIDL
Sequence of BMP-2-inducible protein kinase (Q9NSY1 whole entry): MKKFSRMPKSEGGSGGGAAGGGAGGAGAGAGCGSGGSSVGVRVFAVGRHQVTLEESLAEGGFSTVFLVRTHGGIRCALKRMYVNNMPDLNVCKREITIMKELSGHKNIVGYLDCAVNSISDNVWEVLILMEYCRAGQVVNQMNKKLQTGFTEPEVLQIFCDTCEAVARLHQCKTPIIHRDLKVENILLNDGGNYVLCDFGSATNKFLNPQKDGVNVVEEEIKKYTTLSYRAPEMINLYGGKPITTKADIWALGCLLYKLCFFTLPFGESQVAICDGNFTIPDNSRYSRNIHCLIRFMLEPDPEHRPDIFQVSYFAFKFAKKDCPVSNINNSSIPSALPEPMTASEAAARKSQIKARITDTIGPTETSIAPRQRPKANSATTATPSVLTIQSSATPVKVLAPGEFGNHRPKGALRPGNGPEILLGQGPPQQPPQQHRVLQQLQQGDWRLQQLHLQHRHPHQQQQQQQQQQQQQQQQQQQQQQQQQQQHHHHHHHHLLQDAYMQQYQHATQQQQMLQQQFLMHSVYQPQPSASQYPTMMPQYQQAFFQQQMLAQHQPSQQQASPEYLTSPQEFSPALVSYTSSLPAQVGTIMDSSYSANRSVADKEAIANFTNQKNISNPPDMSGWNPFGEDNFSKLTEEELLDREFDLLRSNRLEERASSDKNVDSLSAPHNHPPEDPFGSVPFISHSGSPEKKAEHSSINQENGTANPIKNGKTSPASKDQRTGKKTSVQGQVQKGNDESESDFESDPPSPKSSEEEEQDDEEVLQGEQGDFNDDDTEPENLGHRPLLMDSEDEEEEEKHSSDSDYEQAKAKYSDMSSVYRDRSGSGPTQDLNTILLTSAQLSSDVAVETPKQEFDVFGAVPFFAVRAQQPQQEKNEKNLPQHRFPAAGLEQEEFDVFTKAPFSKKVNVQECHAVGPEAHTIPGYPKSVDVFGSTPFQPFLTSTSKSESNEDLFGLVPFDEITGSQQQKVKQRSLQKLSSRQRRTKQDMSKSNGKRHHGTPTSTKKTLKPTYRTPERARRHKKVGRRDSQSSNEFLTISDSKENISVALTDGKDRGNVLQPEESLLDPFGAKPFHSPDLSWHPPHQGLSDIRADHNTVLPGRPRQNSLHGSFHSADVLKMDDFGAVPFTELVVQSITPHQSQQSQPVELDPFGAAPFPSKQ
Sequence of Serine/threonine-protein kinase 16 (O75716 whole entry): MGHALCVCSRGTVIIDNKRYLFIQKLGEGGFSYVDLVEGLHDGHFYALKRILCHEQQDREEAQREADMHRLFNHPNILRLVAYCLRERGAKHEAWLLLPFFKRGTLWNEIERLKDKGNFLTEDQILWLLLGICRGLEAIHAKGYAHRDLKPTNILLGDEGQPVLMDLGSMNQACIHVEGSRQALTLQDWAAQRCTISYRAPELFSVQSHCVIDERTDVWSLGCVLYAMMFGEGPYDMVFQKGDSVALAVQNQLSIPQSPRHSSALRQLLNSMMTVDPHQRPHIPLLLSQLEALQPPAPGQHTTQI
Sequence of MAP kinase-interacting serine/threonine-protein kinase 1 (Q9BUB5 whole entry): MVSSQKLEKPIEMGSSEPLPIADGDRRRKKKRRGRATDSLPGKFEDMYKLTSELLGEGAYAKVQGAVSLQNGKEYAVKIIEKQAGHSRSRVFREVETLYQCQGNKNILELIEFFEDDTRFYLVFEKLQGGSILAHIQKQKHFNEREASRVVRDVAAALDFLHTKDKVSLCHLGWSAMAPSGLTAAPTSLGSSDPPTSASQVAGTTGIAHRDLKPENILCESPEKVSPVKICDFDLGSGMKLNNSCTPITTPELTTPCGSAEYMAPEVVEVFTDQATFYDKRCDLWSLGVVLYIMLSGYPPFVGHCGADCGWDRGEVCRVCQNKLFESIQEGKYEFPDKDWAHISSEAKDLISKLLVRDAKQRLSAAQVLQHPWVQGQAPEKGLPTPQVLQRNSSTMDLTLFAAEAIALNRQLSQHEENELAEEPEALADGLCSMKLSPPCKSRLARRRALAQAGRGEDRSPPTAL
Sequence of Glycogen synthase kinase-3 beta (P49841 whole entry): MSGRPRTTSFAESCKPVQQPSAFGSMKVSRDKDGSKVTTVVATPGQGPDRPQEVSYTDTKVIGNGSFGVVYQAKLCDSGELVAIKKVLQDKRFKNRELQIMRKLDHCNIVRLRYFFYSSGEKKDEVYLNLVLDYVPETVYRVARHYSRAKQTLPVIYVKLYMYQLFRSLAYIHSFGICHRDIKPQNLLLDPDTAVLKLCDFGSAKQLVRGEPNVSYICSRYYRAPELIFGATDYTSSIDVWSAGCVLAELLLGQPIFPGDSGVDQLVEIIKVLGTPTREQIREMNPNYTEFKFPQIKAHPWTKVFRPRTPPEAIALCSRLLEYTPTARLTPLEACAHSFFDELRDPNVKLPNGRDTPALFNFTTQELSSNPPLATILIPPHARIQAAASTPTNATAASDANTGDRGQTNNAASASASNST

SMILES: COc1cc2nc(C(N)CC(C)C)nc(C#N)c2cc1-c1cnco1 (centres undefined)
- pIC50 [1]: 8.21

SMILES: CC(C)C[C@@H](N)C(=O)Nc1ccc(-c2cnco2)c(OC(F)F)c1
- Papp [2]: 96.7 ×10⁻⁶ cm/s
- Kp [3]: 0.7
- concentration [4]: 41 µM
- permeability ([5]; caco-2, 2 h): 11.3 10^-6 cm/s
- Papp [6]: 91.8 ×10⁻⁶ cm/s
- concentration [7]: 27 µM
- Kp uu [8]: 0.5

SMILES: COc1cc2nc(C(N)CC(C)C)ncc2cc1-c1cnco1 (centres undefined)
- pIC50 [1]: 6.96

SMILES: CCOc1nc(C(N)CC(C)C)nc2ccc(-c3cnco3)cc12 (centres undefined)
- pIC50 [1]: 6.47

SMILES: CCc1nc([C@H](N)CC(C)C)nc2ccc(-c3cnco3)cc12
- pIC50 [1]: 6.66

SMILES: CC(C)CC(N)c1nc2ccc(-c3ccncc3)cc2cc1C#N (centres undefined)
- pIC50 [1]: 5.74

SMILES: CC(C)C[C@@H](N)c1cc(C#N)c2cc(-c3ccncc3)ccc2n1
- Papp [2]: 40 ×10⁻⁶ cm/s
- remaining at 10 min, 0.5 µM [9]: 43%
- fraction unbound at 5 h, 10 µM [10]: 0.18
- fraction unbound at 5 h, 10 µM [11]: 0.13
- remaining at 10 min, 0.5 µM [12]: 83%
- Papp A→B at 2 h [13]: 13.5 ×10⁻⁶ cm/s
- Kp uu [14]: 0.4
- concentration [15]: 23 µM
- Kp [16]: 1.3
- Papp B→A at 2 h [5]: 10.3 ×10⁻⁶ cm/s
- Papp [6]: 30.7 ×10⁻⁶ cm/s
- fraction unbound at 5 h, 10 µM [17]: 0.045
- pIC50 [18]: 6.97
- concentration [19]: 29 µM
- remaining at 10 min, 0.5 µM [20]: 77%
- pIC50 [1]: 7.96

SMILES: CCc1nc(C(N)CC(C)C)nc2ccc(-c3cnco3)cc12 (centres undefined)
- pIC50 [1]: 7.17

SMILES: CCc1nc(C(N)CC(C)C)nc2cc(OC)c(-c3ccncc3)cc12 (centres undefined)
- pIC50 [1]: 6.38

SMILES: CC(C)C[C@H](N)c1cc(C#N)c2cc(-c3cnco3)ccc2n1
- remaining at 10 min, 0.5 µM [9]: 56%
- fraction unbound at 5 h, 10 µM [10]: 0.014
- fraction unbound at 5 h, 10 µM [11]: 0.03
- remaining at 10 min, 0.5 µM [12]: 76%
- Papp A→B at 2 h [13]: 7.1 ×10⁻⁶ cm/s
- Papp B→A at 2 h [5]: 5.7 ×10⁻⁶ cm/s
- Papp [6]: 93 ×10⁻⁶ cm/s
- fraction unbound at 5 h, 10 µM [17]: 0.009
- pIC50 [18]: 7.49
- remaining at 10 min, 0.5 µM [20]: 71%
- pIC50 [1]: 8.38

SMILES: CC(C)CC(N)c1cc(C#N)c2cc(-c3ccncc3)ccc2n1 (centres undefined)
- pIC50 [1]: 8.14

SMILES: CCNc1nc(C(N)CC(C)C)nc2ccc(-c3cnco3)cc12 (centres undefined)
- pIC50 [1]: 5.96

SMILES: CCc1nc(C(N)CC(C)C)nc2ccc(-c3ccncc3)cc12 (centres undefined)
- pIC50 [1]: 7.36

SMILES: CCc1nc([C@@H](N)CC(C)C)nc2cc(OC)c(-c3cnco3)cc12
- Papp [2]: 80.3 ×10⁻⁶ cm/s
- remaining at 10 min, 0.5 µM [9]: 43%
- fraction unbound at 5 h, 10 µM [10]: 0.17
- fraction unbound at 5 h, 10 µM [11]: 0.1
- remaining at 10 min, 0.5 µM [12]: 83%
- Papp A→B at 2 h [13]: 13.4 ×10⁻⁶ cm/s
- Papp B→A at 2 h [5]: 14.2 ×10⁻⁶ cm/s
- Papp [6]: 78.5 ×10⁻⁶ cm/s
- fraction unbound at 5 h, 10 µM [17]: 0.077
- pIC50 [18]: 7.47
- remaining at 10 min, 0.5 µM [20]: 47%
- pIC50 [1]: 7.92

SMILES: CC(C)C[C@H](N)c1cc(C#N)c2cc(-c3ccncc3)ccc2n1
- pIC50 [21]: < 6.00
- Papp [2]: 112 ×10⁻⁶ cm/s
- remaining at 10 min, 0.5 µM [9]: 50%
- pIC50 [22]: 6.79
- fraction unbound at 5 h, 10 µM [10]: 0.18
- fraction unbound at 5 h, 10 µM [11]: 0.14
- remaining at 10 min, 0.5 µM [12]: 72%
- Papp A→B at 2 h [13]: 11.4 ×10⁻⁶ cm/s
- Kp uu [14]: 0.4
- pIC50 [23]: 7.24
- concentration [15]: 16 µM
- Kp [16]: 1.5
- Papp B→A at 2 h [5]: 4.4 ×10⁻⁶ cm/s
- Papp [6]: 96.9 ×10⁻⁶ cm/s
- fraction unbound at 5 h, 10 µM [17]: 0.054
- pIC50 [24]: 6.00
- pIC50 [25]: 6.95
- pIC50 [18]: 7.72
- concentration [19]: 23 µM
- remaining at 10 min, 0.5 µM [20]: 56%
- pIC50 [26]: < 6.00
- pIC50 [1]: 8.24

SMILES: CCc1nc([C@H](N)CC(C)C)nc2cc(OC)c(-c3cnco3)cc12
- pIC50 [1]: 7.02

SMILES: CC(C)C[C@@H](N)c1cc(C#N)c2cc(-c3cnco3)ccc2n1
- pIC50 [1]: 7.66

SMILES: CC(C)CC(N)c1nc(C#N)c2cc(-c3ccncc3)ccc2n1 (centres undefined)
- pIC50 [1]: 7.80

SMILES: CC(C)CC(N)c1ccc2cc(-c3ccncc3)ccc2n1 (centres undefined)
- pIC50 [1]: 7.68

SMILES: CCc1nc([C@@H](N)CC(C)C)nc2ccc(-c3cnco3)cc12
- Papp [2]: 93.5 ×10⁻⁶ cm/s
- remaining at 10 min, 0.5 µM [9]: 26%
- fraction unbound at 5 h, 10 µM [10]: 0.32
- fraction unbound at 5 h, 10 µM [11]: 0.11
- remaining at 10 min, 0.5 µM [12]: 62%
- Papp A→B at 2 h [13]: 18.4 ×10⁻⁶ cm/s
- Papp B→A at 2 h [5]: 15.6 ×10⁻⁶ cm/s
- Papp [6]: 90.7 ×10⁻⁶ cm/s
- fraction unbound at 5 h, 10 µM [17]: 0.25
- pIC50 [18]: 7.31
- remaining at 10 min, 0.5 µM [20]: 56%
- pIC50 [1]: 7.52
